This passage reports EC50 and IC50 results from US11248013B2, “Tricyclic inhibitors of poly(ADP-ribose)polymerase” (Rakovina Therapeutics Inc., priority 2011, dated 2022).

pEC50, pIC50: −log10 of the molar value.

What is called pEC50 is the negative decadic logarithm of the EC50, by convention in mol/L. By pIC50 is commonly meant the IC50 on a negative log10 scale, so that one unit is a factor of ten.

Chain of PARP-1 (P09874 whole entry): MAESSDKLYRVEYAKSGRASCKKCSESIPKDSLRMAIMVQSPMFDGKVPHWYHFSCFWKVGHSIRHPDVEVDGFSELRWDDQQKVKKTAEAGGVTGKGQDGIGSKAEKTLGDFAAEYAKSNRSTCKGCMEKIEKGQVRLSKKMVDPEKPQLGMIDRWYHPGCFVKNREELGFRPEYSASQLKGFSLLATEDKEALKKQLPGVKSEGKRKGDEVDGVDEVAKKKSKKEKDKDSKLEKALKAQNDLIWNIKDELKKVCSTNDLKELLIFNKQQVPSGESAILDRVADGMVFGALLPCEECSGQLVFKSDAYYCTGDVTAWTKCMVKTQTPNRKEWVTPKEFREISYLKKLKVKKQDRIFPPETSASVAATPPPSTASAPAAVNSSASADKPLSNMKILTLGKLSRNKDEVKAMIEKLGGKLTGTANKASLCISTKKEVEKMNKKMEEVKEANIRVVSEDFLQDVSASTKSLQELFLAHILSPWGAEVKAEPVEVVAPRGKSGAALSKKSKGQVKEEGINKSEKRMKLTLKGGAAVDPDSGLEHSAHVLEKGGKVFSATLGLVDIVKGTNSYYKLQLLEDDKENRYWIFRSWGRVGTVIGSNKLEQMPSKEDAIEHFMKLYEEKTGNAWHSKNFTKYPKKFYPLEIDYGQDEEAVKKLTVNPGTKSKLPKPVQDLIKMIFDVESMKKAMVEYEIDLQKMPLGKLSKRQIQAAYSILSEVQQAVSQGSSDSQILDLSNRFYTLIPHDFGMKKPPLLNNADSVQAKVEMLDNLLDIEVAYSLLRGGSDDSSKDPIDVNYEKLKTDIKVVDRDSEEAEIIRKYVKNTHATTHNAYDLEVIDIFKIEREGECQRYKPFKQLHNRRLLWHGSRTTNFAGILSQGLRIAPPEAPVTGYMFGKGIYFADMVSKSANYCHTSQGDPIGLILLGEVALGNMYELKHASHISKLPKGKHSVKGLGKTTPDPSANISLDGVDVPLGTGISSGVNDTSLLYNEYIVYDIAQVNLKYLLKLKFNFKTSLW

The target of one test is intracellular PARP enzyme (Homo sapiens, UniProt P09874). Kind of test: PARP Cell Assay (IHC, intracellular poly(ADP)-ribose formation in C41 cells). The test is classed as cell-based. The note with it: C41 cells (Human cervical carcinoma), 2 h compound, 1.0 mM H2O2 for 10 min; read-out: EC50 (TARP cell assay). The protocol: Inhibition of intracellular PARP enzyme was determined using an immunohistochemistry (IHC) assay. The cellular assay measures the formation of poly (ADP)-ribose catalyzed by PARP inside cells.
Chain of intracellular PARP enzyme (P09874 2-1014 limits assumed): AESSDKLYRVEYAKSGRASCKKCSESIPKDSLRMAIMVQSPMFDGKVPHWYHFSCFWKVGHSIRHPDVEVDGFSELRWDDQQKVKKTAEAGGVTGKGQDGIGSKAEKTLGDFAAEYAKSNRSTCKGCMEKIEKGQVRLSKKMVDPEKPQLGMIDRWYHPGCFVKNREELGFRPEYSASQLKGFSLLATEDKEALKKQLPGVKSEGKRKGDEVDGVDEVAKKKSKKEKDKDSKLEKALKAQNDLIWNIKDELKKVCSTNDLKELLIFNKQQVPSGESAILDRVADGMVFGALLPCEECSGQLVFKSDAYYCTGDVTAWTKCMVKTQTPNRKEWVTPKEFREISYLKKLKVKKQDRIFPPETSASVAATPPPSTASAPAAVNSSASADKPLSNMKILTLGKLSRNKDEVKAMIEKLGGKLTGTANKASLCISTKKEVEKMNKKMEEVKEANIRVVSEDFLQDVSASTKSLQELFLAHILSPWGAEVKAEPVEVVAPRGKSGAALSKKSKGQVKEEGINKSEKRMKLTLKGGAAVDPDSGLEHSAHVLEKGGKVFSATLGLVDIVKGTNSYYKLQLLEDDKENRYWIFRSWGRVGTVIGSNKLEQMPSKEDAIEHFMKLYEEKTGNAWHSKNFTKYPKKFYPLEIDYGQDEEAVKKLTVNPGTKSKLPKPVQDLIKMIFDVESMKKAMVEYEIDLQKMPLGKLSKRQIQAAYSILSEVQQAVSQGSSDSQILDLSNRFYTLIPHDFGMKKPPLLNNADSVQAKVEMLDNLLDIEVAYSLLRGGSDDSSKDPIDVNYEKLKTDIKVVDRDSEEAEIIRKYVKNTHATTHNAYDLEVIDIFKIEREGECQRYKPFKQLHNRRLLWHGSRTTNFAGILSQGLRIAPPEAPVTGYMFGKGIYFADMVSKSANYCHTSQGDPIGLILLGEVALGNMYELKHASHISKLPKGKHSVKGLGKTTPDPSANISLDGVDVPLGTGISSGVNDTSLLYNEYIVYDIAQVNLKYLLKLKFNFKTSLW
Anti-PAR (Ab-1) Mouse mAb (10H) (Calbiochem, AM-80); Anti-Mouse IgG (whole molecule)-FITC antibody produced in goat (sigma, F2012); DAPI (sigma, D9542).
The C41 cells (Human cervical carcinoma; ATCC No. CRL-1594) were planted into 96-well plates at 8.0E4 cells/well and incubated at 37° C. overnight. Cells were washed with 37° C. warmed PBS once and treated with test compounds for 2 h in 96-well plates. Cells were washed with 37° C. warmed PBS once, and PARP was activated by damaging DNA with 1.0 mM H2O2 for 10 min. Cells were washed with ice-cold PBS once and fixed with pre-chilled methanol/acetone (7:3) at −20° C. for 10 min. After air-drying, plates were rehydrated with PBS and blocked using 5% nonfat dry milk in PBS-Tween (0.05%) (block solution) for 30 min at room temperature. […] After washing with PBS-Tween20.5 times, analysis was performed using Vector 3 Microplate Reader (PerkinElmer) set at the excitation (485 nm) and emission (535 nm) wavelength for FITC or the excitation (364 nm) and emission (454 nm) wavelength for DAPI. […]
`CC(C)CCN1CCP(=O)(c2cc(Cc3n[nH]c(=O)c4ccccc34)ccc2F)CC1` [Example 48]: the pEC50 is 6.00 to 7.00.

The next test concerns the target PARP-1 (Homo sapiens (Human), UniProt P09874). Kind of test: PARP-1 Enzyme Assay (HT Universal Colorimetric PARP Assay Kit). Type of test: biochemical. The note with it: OD450, read-out: IC50 (PARP-1 inhibition). The protocol:
Inhibition of PARP-1 enzymatic activities was measured using an HT Universal Colorimetric PARP Assay Kit (Trevigen, catalogue #4677-096-K) following the standard procedures.
Serial dilutions of PARP compounds were added to appropriate wells. The compound was incubated with PARP enzyme at RT for 10 min, and the reaction was initiated by addition of the PARP substrate cocktail, Each concentration of compound was tested in triplicate wells. After 15 min reaction, the reaction was stopped, and the Strep-HRP was added into each well and incubated for 1 h at RT. After addition of TACS-Sapphire™ colorimetric substrate and incubated in dark for 15 min, the OD450 was read out with an EnVision instrument. IC50 values (the concentration at which 50% of the enzyme activity is inhibited) were calculated, which are determined over a range of different concentrations, normally from 10 μM to 0.1 nM.
In the case of `CC(C)CCN1CCP(=O)(c2cc(Cc3n[nH]c(=O)c4ccccc34)ccc2F)CC1` [Example 48], the pIC50 is greater than 7.00. Take `CCCc1cnc(N2CCP(=O)(c3cc(Cc4n[nH]c(=O)c5ccccc45)ccc3F)CC2)nc1` [Example 37, 4-(4-fluoro-3-(4-oxido-1-(5-(n-propyl)pyrimidin-2-yl)-1,4-azaphosphinan-4-yl)benzyl)phthalazin-1(2H)-one]: the pIC50 was 6.00 to 7.00. On to `N#Cc1ccc(N2CCP(=O)(c3cc(Cc4n[nH]c(=O)c5ccccc45)ccc3F)CC2)cc1` [Example 15, 4-(4-(2-fluoro-5-((4-oxo-3,4-dihydrophthalazin-1-yl)methyl)phenyl)-4-oxido-1,4-azaphosphinan-1-yl)benzonitrile], for which the pIC50 is 5.00 to 6.00. The same measure, in the same setting: the figure for `O=c1[nH]nc(Cc2ccc(F)c(P3(=O)CCN(c4ncc(Cl)cn4)CC3)c2)c2ccccc12` [Example 36, 4-(4-fluoro-3-(4-oxido-1-(5-(chloro)pyrimidin-2-yl)-1,4-azaphosphinan-4-yl)benzyl)phthalazin-1(2H)-one] is greater than 7.00; for “4-(3-(1-(3-chloro-5-(trifluoromethyl)pyridin-2-yl)-4-oxido-1,4-azapbosphinan-4-yl)-4-fluorobenzyl)phthalazin-1(2H)-one [Example 20]” it is 6.00 to 7.00.

For `O=c1[nH]nc(Cc2ccc(F)c(P3(=O)CCN(c4ncc(F)cc4F)CC3)c2)c2ccccc12` [Example 28, 4-(4-fluoro-3-(1-(3,5-difluoropyridin-2-yl)-4-oxido-1,4-azaphosphinan-4-yl)benzyl)phthalazin-1(2H)-one], the pIC50 is greater than 7.00. Same read-out and setting: the figure for “4-(4-fluoro-3-(4-oxido-1-(tetrahydrofuran-2-carbonyl)-1,4-azaphosphinan-4-yl)benzyl)phthalazin-1(2H)-one [Example 7]” is 6.00 to 7.00. Turning to `O=c1[nH]nc(Cc2ccc(F)c(P3(=O)CCN(c4ncnc5ccccc45)CC3)c2)c2ccccc12` [Example 21, 4-(4-fluoro-3-(4-oxido-1-(quinazolin-4-yl)-1,4-azaphosphinan-4-yl)benzyl)phthalazin-1(2H)-one], the pIC50 is greater than 7.00. As to `O=c1[nH]nc(Cc2ccc(F)c(P3(=O)CCN(c4ncccn4)CC3)c2)c2ccc(F)cc12` [Example 56, 4-(4-fluoro-3-(4-oxido-1-(pyrimidin-2-yl)-1,4-azaphosphinan-4-yl)benzyl)-7-fluorophthalazin-1(2H)-one], the pIC50 is greater than 7.00. In the case of `CC(C)(C)CN1CCP(=O)(c2cc(Cc3n[nH]c(=O)c4ccccc34)ccc2F)CC1` [Example 47, 4-(4-fluoro-3-(1-neopentyl-4-oxido-1,4-azaphosphinan-4-yl)benzyl)phthalazin-1(2H)-one], the pIC50 is 6.00 to 7.00. For the molecule “4-(3-(1-(3,3-dimethylbutanoyl)-4-oxido-1,4-azaphosphinan-4-yl)-4-fluorobenzyl)phthalazin-1(2H)-one [Example 5]”, the negative-log IC50 (pIC50) was greater than 7.00.

Consider `CN(C)C(=O)N1CCP(=O)(c2cc(Cc3n[nH]c(=O)c4ccccc34)ccc2F)CC1` [Example 9, 4-(2-fluoro-5-((4-oxo-3,4-dihydrophthalazin-1-yl)methyl)phenyl)-N,N-dimethyl-1,4-azaphosphinane-1-carboxamide 4-oxide], for which the pIC50 is 6.00 to 7.00. In the case of `O=c1[nH]nc(Cc2ccc(F)c(P3(=O)CCN(c4ncc(F)cn4)CC3)c2)c2ccccc12` [compound 35, 4-(4-fluoro-3-(4-oxido-1-(5-(fluoro)pyrimidin-2-yl)-1,4-azaphosphinan-4-yl)benzyl)phthalazin-1(2H)-one], the pIC50 is greater than 7.00. Turning to “(+)-4-[[4-fluoro-3-(4-oxido-1-(pyrimidin-2-yl)-1,4-azaphosphinan-4-yl)phenyl)](hydroxymethyl)]-7-fluorophthalazin-1(2H)-one [Example 59]”, the pIC50 was greater than 7.00. The same measure, in the same setting: the value for `O=C(C1CCCC1)N1CCP(=O)(c2cc(Cc3n[nH]c(=O)c4ccccc34)ccc2F)CC1` [Example 2, 4-(3-(1-(cyclopentanecarbonyl)-4-oxido-1,4-azaphosphinan-4-yl)-4-fluorobenzyl)phthalazin-1 (2H)-one] was 5.00 to 6.00.

For `CN1CCP(=O)(c2cc(Cc3n[nH]c(=O)c4ccccc34)ccc2F)CC1` [Example 40, 4-(4-fluoro-3-(1-methyl-4-oxido-1,4-azaphosphinan-4-yl)benzyl)phthalazin-1(2H)-one], the pIC50 was 6.00 to 7.00.

As to `O=c1[nH]nc(Cc2ccc(F)c(P3(=O)CCN(c4nccc(Cl)n4)CC3)c2)c2ccccc12` [Example 18, 4-(3-(1-(4-chloropyrimidin-2-yl)-4-oxido-1,4-azaphosphinan-4-yl)-4-fluorobenzyl)phthalazin-1(2H)-one], the pIC50 was greater than 7.00. Consider `[2H]C([2H])(c1ccc(F)c(P2(=O)CCN(c3ncccn3)CC2)c1)c1n[nH]c(=O)c2cc(F)ccc12` [Example 57, 4-[(4-fluoro-3-(4-oxido-1-(pyrimidin-2-yl)-1,4-azaphosphinan-4-yl)phenyl)dideuteromethyl]-7-fluorophthalazin-1(2H)-one], for which the pIC50 was greater than 7.00. For the molecule `CC(C)(C)CN1CCP(=O)(c2cc(Cc3n[nH]c(=O)c4ccccc34)ccc2F)CC1` [Example 46, 4-(4-fluoro-3-(1-neopentyl-4-oxido-l,4-azaphosphinan-4-yl)benzyl)phthalazin-1(2H)-one], the pIC50 is greater than 7.00.

Consider `O=c1[nH]nc(Cc2ccc(F)c(P3(=O)CCN(c4cc(C(F)(F)F)ccn4)CC3)c2)c2ccccc12` [Example 26, 4-(4-fluoro-3-(4-oxido-1-(4-(trifluoromethyl)pyridin-2-yl)-1,4-azaphosphinan-4-yl)benzyl)phthalazin-1(2H)-one], for which the pIC50 is greater than 7.00. Turning to `CP1(=O)CCN(C(=O)c2cc(Cc3n[nH]c(=O)c4ccccc34)ccc2F)CC1` [Example 50, 4-[[4-fluoro-3-(4-methyl-4-oxo-1,4-azaphosphinane-1-carbonyl)phenyl]methyl]-2H-phthalazin-1-one], the pIC50 was greater than 7.00.

Regarding `O=c1[nH]nc(Cc2ccc(F)c(P3(=O)CCN(c4ccnc(Cl)n4)CC3)c2)c2ccccc12` [Example 17, 4-(3-(1-(2-chloropyrimidin-4-yl)-4-oxido-1,4-azaphosphinan-4-yl)-4-fluorobenzyl)phthalazin-1(2H)-one], the pIC50 was greater than 7.00. With `CC(=O)c1cccnc1N1CCP(=O)(c2cc(Cc3n[nH]c(=O)c4ccccc34)ccc2F)CC1` [Example 34, 4-(4-fluoro-3-(4-oxido-1-(3-(acetyl)pyridin-2-yl)-1,4-azaphosphinan-4-yl)benzyl)phthalazin-1(2H)-one], the pIC50 is greater than 7.00. Regarding “4-(4-fluoro-3-(4-oxido-1-pivaloyl-1,4-azaphosphinan-4-yl)benzyl)phthalazin-1(2H)-one [Example 8]”, the pIC50 was greater than 7.00.
